This note sets out measurements from patent publication US8648101B2, “Nematicidal agent composition and method of using the same” (Nihon Nohyaku Co., Ltd., priority 2007, dated 2014).

Test [1] relates to soybean cyst nematode (Heterodera grycines). Nature of the test: Nematocidal test on the soybean cyst nematode, treated soil with soybean. On the set-up: key: A: no cysts.; B: cysts are present but their number is definitely smaller than that for untreated plot.; C: cysts are present in an equivalent number to or a larger number than that for untreated plot. Format: in vivo. The note with it: 7.5 mg wettable powder (1.5 mg active ingredient per kg soil); 40 days after seeding. The method, then:
Nematocidal Test on the Soybean Cyst Nematode (Heterodera grycines)
A wettable powder comprising each compound listed in Table 1 as an active ingredient was prepared as directed in Preparation Example 4, and 75 mg and 7.5 mg were weighed out so that the active ingredient content would be 15 mg and 1.5 mg per kg soil; these agents were mixed in soil (1000 g) contaminated with soybean cyst nematodes in a plastic bag. The treated soil was filled in pots, soybean seeds were sown, and the pots were placed in a glass greenhouse. Forty days after the seeding, the soil on the roots was put down, the number of cysts was examined, and the effect was determined according to the rating criteria shown below.
• A: no cysts. • B: cysts are present but their number is definitely smaller than that for untreated plot. • C: cysts are present in an equivalent number to or a larger number than that for untreated plot.

The subject of test [2] is southern root-knot nematode (Meloidogyne incognita). Briefly: Nematocidal test on the southern root-knot nematode, pot-grown melon seedlings. Format: in vivo. On the set-up: key: A: no root knots.; B: root knots are present but their number is definitely smaller than that for untreated plot.; C: root knots are present in an equivalent number to or a larger number than that for untreated plot. The note with it: 30 ppm emulsion dilution, 1 ml injected at foot of melon seedlings; 8 days after inoculation. Here is the method: Nematocidal Test on the Southern Root-Knot Nematode (Meloidogyne incognita)
An emulsion comprising each compound listed in Table 1 as an active ingredient was prepared as directed in Preparation Example 1, and diluted to obtain active ingredient concentrations of 300 ppm and 30 ppm. Each of these dilutions (1 ml) was applied to the foots of pot-grown melon seedlings by injection; 1 day after application of the dilution, an aqueous suspension of southern root-knot nematodes (about 500 nematodes/ml) was inoculated (soil injection), to a treated plot and an untreated plot and the pots were placed in a 25° C. greenhouse. Eight days after the inoculation, the roots were washed with water and examined for the number of root knots, and the effects were determined according to the following rating criteria.
• A: no root knots. • B: root knots are present but their number is definitely smaller than that for untreated plot. • C: root knots are present in an equivalent number to or a larger number than that for untreated plot.

Regarding `O=C(NCCc1ncc(C(F)(F)F)cc1Cl)c1ccccc1C(F)(F)F` [Compound 7, N-[2-(3-chloro-5-trifluoromethylpyridin-2-yl)ethyl]-2-trifluoromethylbenzamide], the “rating (number of cysts)” value in test [1] is listed as “A”. Also, in test [2], the “rating (number of root knots)” value is reported as “A”.
